Assay results reported in ChEMBL document CHEMBL1201862, “PubChem BioAssay data set” (2004).
Activity calls are given as the source filed them.

Columns and labels:
Protein Wnt-3a = Protein Wnt-3a (Mus musculus, UniProt P27467); assay: Wnt3a-driven reporter signaling inhibition, dose response, selectivity assay for Gli-SUFU antagonist project, Wnt-LIGHT cells, luminescence (AID 651570); format: functional; conditions: read-out: IC50_Mean;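 note: Wnt-LIGHT reporter cells stimulated with conditioned medium from Wnt3a-producing cells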
[1] = Shn3 3'UTR reporter inhibitors, dose response, cell-based, Clone20 osteoblasts, firefly luciferase, cherry-picked (AID 624132); format: functional;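 note: firefly luciferase luminescence from reporter carrying the Shn3 3'UTR in osteoblasts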
[2] = Vero E6 cell cytotoxicity, dose response, cytotoxicity control for non-replicating M. tuberculosis project, secondary assay (AID 492998); format: functional, VeroE6; conditions: Vero C1008
[3] = cytotoxicity toward NIH3T3 fibroblasts, dose response, counter-screen, cell-based, ATP luminescence, mouse fibroblasts (AID 2010); format: functional;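 note: cells exposed to compound for about 90 hours before reading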
A-375 = assay: MITF: Counter assay: A375 proliferation Measured in Cell-Based System Using Plate Reader - 2084-03_Inhibitor_Dose_DryPowder_Activity. [Related pubchem assays (depositor defined):AID488944]; format: functional; conditions: Homo sapiens
[4] = molecular target: T1, Microphthalmia-associated transcription factor (Homo sapiens, UniProt O75030); assay: TRPM1 promoter luciferase signal decrease, dose response, MITF inhibitor project, cell-based, SK-MEL-5, cherry-picked, set 3 (AID 493073); format: functional
T1 sequence (O75030 whole entry): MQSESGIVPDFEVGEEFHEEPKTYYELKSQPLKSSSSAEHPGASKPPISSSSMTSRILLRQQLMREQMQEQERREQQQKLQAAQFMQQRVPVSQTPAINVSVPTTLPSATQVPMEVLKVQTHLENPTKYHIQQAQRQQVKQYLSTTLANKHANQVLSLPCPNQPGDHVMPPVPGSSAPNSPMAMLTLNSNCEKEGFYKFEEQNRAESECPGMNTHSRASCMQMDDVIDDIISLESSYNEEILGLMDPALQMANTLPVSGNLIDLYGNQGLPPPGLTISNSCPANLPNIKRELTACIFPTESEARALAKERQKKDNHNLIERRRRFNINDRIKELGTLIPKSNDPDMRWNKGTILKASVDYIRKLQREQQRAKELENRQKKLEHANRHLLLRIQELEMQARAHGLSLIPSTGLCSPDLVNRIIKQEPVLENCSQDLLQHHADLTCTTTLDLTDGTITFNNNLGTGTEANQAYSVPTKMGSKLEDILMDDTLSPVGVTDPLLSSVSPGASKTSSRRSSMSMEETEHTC

[5] = THP-1 cell cytotoxicity, dose response, cytotoxicity control for non-replicating M. tuberculosis project (AID 489025); format: functional
cells = format: functional
[6] = Luminescence Cell-Based Dose Retest to Confirm Inhibitors of Cancer Stem Cells. [Related pubchem assays (depositor defined):AID2717, AID2721]; format: functional; conditions: Homo sapiens
[7] = control 3'UTR Renilla luciferase suppression, dose response, counter-screen for Shn3 inhibitor project, cell-based, Clone20-Shn3RL, cherry-picked (AID 624133); format: functional
[8] = HeLa cell cytotoxicity, dose response, cytotoxicity control for MgcRacGAP inhibitor project (AID 624300); format: functional
[9] = HepG2 cell cytotoxicity, dose response, cytotoxicity control for Shn3 inhibitor project, CellTiter-Glo, cherry-picked (AID 624134); format: functional, cell-based
[10] = inhibitors of intracellular T. cruzi replication, confirmation, NIH3T3 host cells, beta-gal luminescence (AID 2044); format: functional, cell-based;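 note: intracellular parasites grown in NIH/3T3 mouse fibroblasts as host cells; luminescent beta-galactosidase reporter signal from transgenic T. cruzi replicating inside host cells; inhibitors lower the luminescence signal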
INS1 = assay: beta cell apoptosis inhibitors, cytokine rescue, dose response, luminescence, retest (AID 449756); format: functional, cell-based; conditions: Rattus norvegicus;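 note: cell death triggered by IL-1 beta plus TNF-alpha plus IFN-gamma mixture; protective hits raise ATP signal compared with cytokine alone wells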
[11] = HepG2 cell cytotoxicity, dose response, cytotoxicity control for non-replicating M. tuberculosis project (AID 489018); format: functional; conditions: Mycobacterium tuberculosis
[12] = molecular target: T2, RNA-binding protein pos-1 (Caenorhabditis elegans, UniProt G5EF15); assay: inhibitors of POS-1/mex-3 RNA binding, dose response, biochemical, fluorescence polarization (AID 1964);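 note: purified POS-1 fused to maltose binding protein made in E. coli; potency of compounds blocking POS-1 binding to fluorescent RNA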
T2 sequence (G5EF15 whole entry): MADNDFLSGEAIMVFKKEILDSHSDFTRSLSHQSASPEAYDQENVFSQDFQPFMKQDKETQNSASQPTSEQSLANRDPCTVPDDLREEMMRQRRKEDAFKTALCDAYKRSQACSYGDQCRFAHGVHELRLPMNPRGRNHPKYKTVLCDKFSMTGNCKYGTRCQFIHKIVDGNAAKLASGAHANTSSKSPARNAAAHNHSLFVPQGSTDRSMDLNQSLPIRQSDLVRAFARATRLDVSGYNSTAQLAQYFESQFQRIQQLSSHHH

[13] = molecular target: T3, Zinc finger protein mex-5 (Caenorhabditis elegans, UniProt Q9XUB2); assay: MEX-5/TCR-2 RNA interaction inhibitors, dose response, biochemical, C. elegans, fluorescence polarization (AID 1960)
T3 sequence (Q9XUB2 whole entry): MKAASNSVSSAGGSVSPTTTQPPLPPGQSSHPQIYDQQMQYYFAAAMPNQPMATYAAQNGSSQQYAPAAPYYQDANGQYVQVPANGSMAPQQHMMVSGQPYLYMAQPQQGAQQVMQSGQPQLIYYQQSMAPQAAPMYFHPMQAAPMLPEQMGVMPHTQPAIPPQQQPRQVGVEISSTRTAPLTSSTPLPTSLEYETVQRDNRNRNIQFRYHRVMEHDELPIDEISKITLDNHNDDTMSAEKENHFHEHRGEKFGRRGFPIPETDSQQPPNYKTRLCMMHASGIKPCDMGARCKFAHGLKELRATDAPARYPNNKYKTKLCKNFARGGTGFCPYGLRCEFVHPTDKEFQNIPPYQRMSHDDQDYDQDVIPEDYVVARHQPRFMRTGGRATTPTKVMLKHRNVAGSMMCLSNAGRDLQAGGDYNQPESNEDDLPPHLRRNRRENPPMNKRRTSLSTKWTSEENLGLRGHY

fMet-Leu-Phe receptor = molecular target: T4, fMet-Leu-Phe receptor (Homo sapiens, UniProt P21462); assay: FPR ligands, dose response (AID 519); format: functional
T4 sequence (P21462 whole entry): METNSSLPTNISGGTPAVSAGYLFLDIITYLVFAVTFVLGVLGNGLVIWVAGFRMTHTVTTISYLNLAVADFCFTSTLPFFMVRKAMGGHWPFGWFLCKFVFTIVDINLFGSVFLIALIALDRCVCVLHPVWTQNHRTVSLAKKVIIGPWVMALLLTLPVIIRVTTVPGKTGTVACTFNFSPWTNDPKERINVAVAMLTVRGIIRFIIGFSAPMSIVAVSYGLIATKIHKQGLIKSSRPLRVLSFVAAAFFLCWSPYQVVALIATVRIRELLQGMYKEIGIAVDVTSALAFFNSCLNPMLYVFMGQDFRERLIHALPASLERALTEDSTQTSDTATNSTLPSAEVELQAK

[14] = C. albicans growth with fluconazole, confirmation, fluorescence, retest (AID 2467); format: functional, cell-based
[15] = NIH-3T3 fibroblast cytotoxicity, dose response, cytotoxicity control, cell-based, fluorescence, Alamar Blue, secondary assay (AID 2327); format: functional;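 note: NIH-3T3 mouse fibroblasts cultured with fluconazole at 8 µg/mL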
HEK293 [16] = assay: cells; conditions: Homo sapiens
HEK293 [17] = assay: cells; conditions: Homo sapiens; remark: listed apart in the source
Escherichia coli = assay: microbe, parasite or virus in culture
[18] = microbe, parasite or virus in culture; format: functional; conditions: Mycobacterium tuberculosis
Beta-galactosidase = Beta-galactosidase (Escherichia coli, UniProt Q8VNN2); assay: Dose response counterscreen for EBI2 assay utilizing the enzyme, b-galactosidase.; format: functional
[19] = molecular target: T5, Sentrin-specific protease 1 (Homo sapiens, UniProt Q9P0U3); assay: potency of human SENP1 inhibitors, dose response, biochemical, kinetic FRET (AID 651697); format: functional; conditions: read-out: IC50_Mean
T5 sequence (Q9P0U3 whole entry): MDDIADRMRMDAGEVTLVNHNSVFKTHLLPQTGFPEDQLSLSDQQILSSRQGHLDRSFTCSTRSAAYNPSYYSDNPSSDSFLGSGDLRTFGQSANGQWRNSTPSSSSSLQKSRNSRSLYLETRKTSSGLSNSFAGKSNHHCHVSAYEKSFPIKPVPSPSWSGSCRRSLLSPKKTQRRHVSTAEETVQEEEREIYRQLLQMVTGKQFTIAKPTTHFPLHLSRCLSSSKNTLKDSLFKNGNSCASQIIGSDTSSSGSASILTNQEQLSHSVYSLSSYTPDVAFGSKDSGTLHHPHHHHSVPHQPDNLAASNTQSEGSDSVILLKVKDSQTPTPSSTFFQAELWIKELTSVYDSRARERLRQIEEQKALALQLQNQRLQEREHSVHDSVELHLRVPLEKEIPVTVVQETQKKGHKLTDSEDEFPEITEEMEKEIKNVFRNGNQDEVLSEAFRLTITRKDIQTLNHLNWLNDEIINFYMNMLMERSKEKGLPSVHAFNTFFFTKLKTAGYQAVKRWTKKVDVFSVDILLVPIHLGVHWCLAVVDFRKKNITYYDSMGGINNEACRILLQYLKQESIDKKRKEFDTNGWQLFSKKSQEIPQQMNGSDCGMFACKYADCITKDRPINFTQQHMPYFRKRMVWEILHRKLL

[20] = molecular target: T5, Sentrin-specific protease 1; assay: Dose response confirmation of small molecule inhibitors of the catalytic domain of the SUMO protease, SENP1 in a FRET assay.; format: functional; conditions: read-out: IC50_Mean

Chain of Protein Wnt-3a (P27467 whole entry): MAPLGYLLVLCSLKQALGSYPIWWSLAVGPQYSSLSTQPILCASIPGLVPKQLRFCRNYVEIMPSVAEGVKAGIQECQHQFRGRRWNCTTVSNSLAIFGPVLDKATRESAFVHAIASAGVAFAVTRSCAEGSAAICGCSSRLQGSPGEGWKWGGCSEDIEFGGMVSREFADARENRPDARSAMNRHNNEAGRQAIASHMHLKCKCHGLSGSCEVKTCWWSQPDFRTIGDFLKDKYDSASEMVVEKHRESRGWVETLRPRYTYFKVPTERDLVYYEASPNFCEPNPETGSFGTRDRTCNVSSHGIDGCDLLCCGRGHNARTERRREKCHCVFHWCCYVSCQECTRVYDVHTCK
Chain of Beta-galactosidase (Q8VNN2 whole entry): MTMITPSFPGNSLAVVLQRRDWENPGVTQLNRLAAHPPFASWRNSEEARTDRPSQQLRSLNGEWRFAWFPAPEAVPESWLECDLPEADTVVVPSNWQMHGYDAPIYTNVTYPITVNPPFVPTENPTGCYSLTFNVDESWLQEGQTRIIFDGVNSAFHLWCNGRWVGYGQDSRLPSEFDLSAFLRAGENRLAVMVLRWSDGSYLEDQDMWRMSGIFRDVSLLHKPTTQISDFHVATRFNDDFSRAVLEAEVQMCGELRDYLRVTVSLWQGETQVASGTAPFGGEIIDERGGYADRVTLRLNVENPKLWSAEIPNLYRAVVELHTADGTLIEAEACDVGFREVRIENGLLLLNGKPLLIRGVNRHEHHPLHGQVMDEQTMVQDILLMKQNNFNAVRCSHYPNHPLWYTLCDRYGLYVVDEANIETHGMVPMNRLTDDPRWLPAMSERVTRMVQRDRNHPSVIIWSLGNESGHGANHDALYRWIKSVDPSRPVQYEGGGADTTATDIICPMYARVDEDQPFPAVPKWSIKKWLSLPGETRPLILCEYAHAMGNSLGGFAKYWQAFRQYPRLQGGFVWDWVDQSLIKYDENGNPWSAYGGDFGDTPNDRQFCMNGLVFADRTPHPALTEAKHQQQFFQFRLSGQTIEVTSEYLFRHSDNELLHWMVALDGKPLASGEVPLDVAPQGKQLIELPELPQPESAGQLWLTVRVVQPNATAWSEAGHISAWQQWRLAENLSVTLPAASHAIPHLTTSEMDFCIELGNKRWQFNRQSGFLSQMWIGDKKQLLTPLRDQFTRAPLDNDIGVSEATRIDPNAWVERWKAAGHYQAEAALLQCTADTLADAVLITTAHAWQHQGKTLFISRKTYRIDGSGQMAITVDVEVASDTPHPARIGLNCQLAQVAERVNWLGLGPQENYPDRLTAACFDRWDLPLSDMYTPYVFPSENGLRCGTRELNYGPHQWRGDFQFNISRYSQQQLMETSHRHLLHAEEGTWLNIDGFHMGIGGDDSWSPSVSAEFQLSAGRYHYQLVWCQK

COc1ccc(CNc2cc(C)nc3ncnn23)c(OC)c1
IC50 (Protein Wnt-3a): 4.21 µM (active)

Cc1ccn2c(Nc3ccccc3)c(-c3ccccn3)nc2c1
AC50 [1]: 2.31 µM (active) | CC50 [2]: 4.64 µM (active) | EC50 [3]: 2.91 µM (active) | AC50 (A-375): 38.1 µM (active) | AC50 [4]: 9.31 µM (active) | CC50 [5]: 6.44 µM (active) | IC50 (cells): 3.88 µM (active) | AC50 [6]: 4.95 µM (active) | AC50 [7]: 3.25 µM (active) | CC50 [8]: 50 µM (active) | AC50 [9]: 7.07 µM (active) | EC50 [10]: 1.16 µM (active) | AC50 (INS1): 5.31 µM (active) | CC50 [11]: > 20 µM (active)

COc1ccc(-c2nnc(Nc3nc4c(OC)cccc4s3)o2)c(OC)c1
EC50 [12]: > 300 µM (not active) | EC50 [13]: 61.3 µM (active) | Ki (fMet-Leu-Phe receptor): > 66.7 µM (inactive) | EC50 [14]: > 38 µM (not active) | EC50 [15]: > 150 µM (inconclusive) | EC50 (HEK293 [16]): > 59.6 µM (inactive) | EC50 (HEK293 [17]): > 59.6 µM (inactive)

COc1ccc(N2C(=O)C3C4C=CC(C4)C3C2=O)nn1 (configuration not stated)
AC50 (Escherichia coli): 26.5 µM (active)

CCOC(=O)c1ccc(/N=c2\sc(C(=O)OC)cc(=O)n2CCCN2CCOCC2)cc1
CC50 [18]: > 40 µM (active) | IC50 (Beta-galactosidase): > 80 µM (inactive)

COc1cc(/C=C2\CCCc3c2nc2ccccc2c3C(=O)O)cc(Cl)c1O
IC50 [19]: 4.82 µM (active) | IC50 [20]: 2.96 µM (active)
